# Measured values from patent US9353151B2, “HLA-binding peptide, and DNA fragment and recombinant vector coding for said HLA-binding peptide” (NEC Corporation, priority 2005, dated 2016).
# pKd: −log10 of the molar value. No end group written: not given here.
# Legend:
# [1] = system: HLA-A24 molecule (product of the HLA-A*2402 gene); assay: Experiment of binding peptide to HLA-A24 molecule (C1R-A24 cells, flow cytometry); design: species or system human; details: for Binding Experiment Data: -log Kd value (Kd in molar concentration), C1R-A24 cells
# Protocol: The ability of a peptide to bind to an HLA-A24 molecule, which is a product of the HLA-A*2402 gene, was measured using C1R-A24 cells expressing the HLA-A24 molecule (cells prepared by Professor Masafumi Takiguchi, Kumamoto University being supplied with permission by Assistant Professor Masaki Yasukawa, Ehime University).
# C1R-A24 cells were first exposed to acidic conditions at a pH of 3.3 for 30 seconds, thus dissociating and removing a light chain β2m, which is associated with HLA class I molecules in common, and an endogenous peptide originally bound to the HLA-A*2402 molecule. After neutralization, purified β2m was added to C1R-A24 cells, the obtained product was added to serial dilutions of a peptide, and incubated on ice for 4 hours. Staining was carried out using fluorescently labeled monoclonal antibody 17A12, which recognizes association (MHC-pep) of the three members, that is, HLA-A*2402 molecule, the peptide, and β2m, which had reassociated during the incubation.
# Subsequently, the MHC-pep count per C1R-A24 cell (proportional to the strength of fluorescence of the above-mentioned fluorescent antibody) was quantitatively measured using an FACScan fluorescence-activated cell sorter (Becton Dickinson Biosciences). A binding dissociation constant Kd value between the HLA-A24 molecule and the peptide was calculated from the average strength of fluorescence per cell by a published method (Udaka et al., Immunogenetics, 51, 816-828, 2000).
# [2] = biological target: HLA-A2 molecule (product of the HLA-A*0201 gene) (Homo sapiens, UniProt P04439, D140Y/D185E/D98H/E176V/E277Q/G131W/G231S/I119V/I121R/I166T/I218V/L300P/L318F/N151K/N90K/P208A/P217A/Q86G/Q94H/R138H/R169H/T345S); assay: Experiment of binding peptide to HLA-A2 molecule (JY cells, flow cytometry); details: -log Kd value (Kd in molar concentration)
# Protocol: JY cells were first exposed to acidic conditions at a pH of 3.8 for 30 seconds, thus dissociating and removing a light chain β2m and an endogenous peptide, which were noncovalently associated with the HLA-A*0201 molecule. After neutralization, a reassociation experiment was carried out.
# The above-mentioned JY cells and the purified β2m were added to stepped dilutions of peptide for which the binding ability would be measured, and incubation was carried out on ice for 4 hours. HLA-A*0201 molecules that had reassociated up to this point were stained using the associating type specific fluorescently-labeled monoclonal antibody BB7.2.
# Subsequently, the amount of fluorescence per cell was measured using a flow cytometer and a dissociation constant Kd value in molar concentration was calculated by a published method (Udaka et al., Immunogenetics, 51, 816-828, 2000).
Sequence,binding to a human HLA-A type molecule (in words) [1],Binding Experiment Data ([1]; 9 amino acid peptides),further results
AFLSVKKQF [compound 2],experimentally confirmed to bind,7.7283,–
FLKDHRISTF [compound 44],experimentally confirmed to bind,–,Binding Experiment Data ([1]; 10 amino acid peptides): 7.008
FLKDHRISTF [compound 61],–,–,pKd ([2]; 10 amino acid peptides): 5.53
GAPTLPPAW [compound 6],experimentally confirmed to bind,6.1588,–
SSGCAFLSV [compound 21],–,–,pKd ([2]; 9 amino acid peptides): 5.29
TLPPAWQPF [compound 1],experimentally confirmed to bind,8.2648,–
TLPPAWQPF [compound 23],–,–,pKd ([2]; 9 amino acid peptides): 5.36
